Assay results as given in patent publication US9340590B2 (priority 2011, dated 2016).
Positions of bridges follow the written chain, without caps; N, C: chain ends. Non-standard residues stand in square brackets, D forms with d. Residues, ends and D or L forms follow the SMILES beside them. Groups on a side chain read outwards from the residue. Arg(Me2s) = CN=C(NC)NCCC[C@H](N)C(=O)O; Arg(Me) = CNC(=N)NCCC[C@H](N)C(=O)O; hArg = N=C(N)NCCCC[C@H](N)C(=O)O; Pra = C#CC[C@H](N)C(=O)O

What was measured:
hNav1.7 = hNav1.7 (Homo sapiens, UniProt Q15858); test: cell-based; conditions: Nav1.7 Use IC50
Sequence of hNav1.7 (Q15858 whole entry, looked up): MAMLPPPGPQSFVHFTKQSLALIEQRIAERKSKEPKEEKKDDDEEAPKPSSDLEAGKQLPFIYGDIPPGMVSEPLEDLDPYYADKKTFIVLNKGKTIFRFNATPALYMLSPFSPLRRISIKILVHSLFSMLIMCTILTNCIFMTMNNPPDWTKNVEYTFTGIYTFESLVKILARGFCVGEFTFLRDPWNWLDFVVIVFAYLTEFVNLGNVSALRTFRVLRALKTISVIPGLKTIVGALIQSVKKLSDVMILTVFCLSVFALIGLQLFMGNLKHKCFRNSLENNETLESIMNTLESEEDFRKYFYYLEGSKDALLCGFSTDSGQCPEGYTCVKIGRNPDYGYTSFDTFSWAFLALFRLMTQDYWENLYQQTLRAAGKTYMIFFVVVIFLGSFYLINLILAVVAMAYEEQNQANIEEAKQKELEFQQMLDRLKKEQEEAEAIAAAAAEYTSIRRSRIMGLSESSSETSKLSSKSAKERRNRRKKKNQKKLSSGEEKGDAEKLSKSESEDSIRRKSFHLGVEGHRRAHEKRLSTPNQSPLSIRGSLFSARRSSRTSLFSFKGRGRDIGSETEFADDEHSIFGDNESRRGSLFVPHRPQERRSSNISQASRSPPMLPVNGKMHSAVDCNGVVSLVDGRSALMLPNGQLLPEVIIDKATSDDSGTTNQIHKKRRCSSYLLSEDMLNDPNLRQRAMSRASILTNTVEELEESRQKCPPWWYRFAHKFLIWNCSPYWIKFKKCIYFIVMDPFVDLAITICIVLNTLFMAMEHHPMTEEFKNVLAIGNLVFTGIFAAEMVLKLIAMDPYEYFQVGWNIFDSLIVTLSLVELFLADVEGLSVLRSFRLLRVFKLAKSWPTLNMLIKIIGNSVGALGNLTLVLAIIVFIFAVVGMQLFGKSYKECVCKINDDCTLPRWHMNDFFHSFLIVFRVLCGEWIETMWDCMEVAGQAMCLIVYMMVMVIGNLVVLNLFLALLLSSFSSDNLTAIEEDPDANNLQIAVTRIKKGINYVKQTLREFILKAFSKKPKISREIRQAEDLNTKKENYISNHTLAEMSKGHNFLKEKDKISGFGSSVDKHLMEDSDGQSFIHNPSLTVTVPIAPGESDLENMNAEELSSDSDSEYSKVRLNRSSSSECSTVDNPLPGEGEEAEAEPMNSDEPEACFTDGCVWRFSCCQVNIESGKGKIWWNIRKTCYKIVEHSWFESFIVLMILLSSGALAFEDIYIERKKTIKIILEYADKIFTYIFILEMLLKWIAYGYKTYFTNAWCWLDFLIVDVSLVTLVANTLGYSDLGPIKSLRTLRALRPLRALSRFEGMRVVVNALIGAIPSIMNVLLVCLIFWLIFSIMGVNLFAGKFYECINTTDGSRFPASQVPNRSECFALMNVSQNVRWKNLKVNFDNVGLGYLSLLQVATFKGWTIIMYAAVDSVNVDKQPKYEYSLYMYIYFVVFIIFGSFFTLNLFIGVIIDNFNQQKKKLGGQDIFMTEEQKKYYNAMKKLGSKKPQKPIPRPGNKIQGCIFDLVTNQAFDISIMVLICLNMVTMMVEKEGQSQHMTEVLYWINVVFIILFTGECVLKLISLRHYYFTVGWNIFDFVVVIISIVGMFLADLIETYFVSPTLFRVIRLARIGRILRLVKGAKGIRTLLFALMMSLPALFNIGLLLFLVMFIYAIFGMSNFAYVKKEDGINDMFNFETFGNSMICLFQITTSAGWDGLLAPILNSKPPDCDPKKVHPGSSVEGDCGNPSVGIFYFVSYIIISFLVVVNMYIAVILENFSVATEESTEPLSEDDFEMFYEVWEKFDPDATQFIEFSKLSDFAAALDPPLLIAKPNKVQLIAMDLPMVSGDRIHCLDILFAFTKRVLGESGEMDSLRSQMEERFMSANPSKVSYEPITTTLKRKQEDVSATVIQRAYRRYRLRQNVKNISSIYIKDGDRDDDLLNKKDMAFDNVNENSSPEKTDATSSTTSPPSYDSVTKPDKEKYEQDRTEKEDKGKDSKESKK

hNav1.5 = hNav1.5 (Homo sapiens, UniProt Q14524); test: cell-based
Sequence of hNav1.5 (Q14524 whole entry, looked up): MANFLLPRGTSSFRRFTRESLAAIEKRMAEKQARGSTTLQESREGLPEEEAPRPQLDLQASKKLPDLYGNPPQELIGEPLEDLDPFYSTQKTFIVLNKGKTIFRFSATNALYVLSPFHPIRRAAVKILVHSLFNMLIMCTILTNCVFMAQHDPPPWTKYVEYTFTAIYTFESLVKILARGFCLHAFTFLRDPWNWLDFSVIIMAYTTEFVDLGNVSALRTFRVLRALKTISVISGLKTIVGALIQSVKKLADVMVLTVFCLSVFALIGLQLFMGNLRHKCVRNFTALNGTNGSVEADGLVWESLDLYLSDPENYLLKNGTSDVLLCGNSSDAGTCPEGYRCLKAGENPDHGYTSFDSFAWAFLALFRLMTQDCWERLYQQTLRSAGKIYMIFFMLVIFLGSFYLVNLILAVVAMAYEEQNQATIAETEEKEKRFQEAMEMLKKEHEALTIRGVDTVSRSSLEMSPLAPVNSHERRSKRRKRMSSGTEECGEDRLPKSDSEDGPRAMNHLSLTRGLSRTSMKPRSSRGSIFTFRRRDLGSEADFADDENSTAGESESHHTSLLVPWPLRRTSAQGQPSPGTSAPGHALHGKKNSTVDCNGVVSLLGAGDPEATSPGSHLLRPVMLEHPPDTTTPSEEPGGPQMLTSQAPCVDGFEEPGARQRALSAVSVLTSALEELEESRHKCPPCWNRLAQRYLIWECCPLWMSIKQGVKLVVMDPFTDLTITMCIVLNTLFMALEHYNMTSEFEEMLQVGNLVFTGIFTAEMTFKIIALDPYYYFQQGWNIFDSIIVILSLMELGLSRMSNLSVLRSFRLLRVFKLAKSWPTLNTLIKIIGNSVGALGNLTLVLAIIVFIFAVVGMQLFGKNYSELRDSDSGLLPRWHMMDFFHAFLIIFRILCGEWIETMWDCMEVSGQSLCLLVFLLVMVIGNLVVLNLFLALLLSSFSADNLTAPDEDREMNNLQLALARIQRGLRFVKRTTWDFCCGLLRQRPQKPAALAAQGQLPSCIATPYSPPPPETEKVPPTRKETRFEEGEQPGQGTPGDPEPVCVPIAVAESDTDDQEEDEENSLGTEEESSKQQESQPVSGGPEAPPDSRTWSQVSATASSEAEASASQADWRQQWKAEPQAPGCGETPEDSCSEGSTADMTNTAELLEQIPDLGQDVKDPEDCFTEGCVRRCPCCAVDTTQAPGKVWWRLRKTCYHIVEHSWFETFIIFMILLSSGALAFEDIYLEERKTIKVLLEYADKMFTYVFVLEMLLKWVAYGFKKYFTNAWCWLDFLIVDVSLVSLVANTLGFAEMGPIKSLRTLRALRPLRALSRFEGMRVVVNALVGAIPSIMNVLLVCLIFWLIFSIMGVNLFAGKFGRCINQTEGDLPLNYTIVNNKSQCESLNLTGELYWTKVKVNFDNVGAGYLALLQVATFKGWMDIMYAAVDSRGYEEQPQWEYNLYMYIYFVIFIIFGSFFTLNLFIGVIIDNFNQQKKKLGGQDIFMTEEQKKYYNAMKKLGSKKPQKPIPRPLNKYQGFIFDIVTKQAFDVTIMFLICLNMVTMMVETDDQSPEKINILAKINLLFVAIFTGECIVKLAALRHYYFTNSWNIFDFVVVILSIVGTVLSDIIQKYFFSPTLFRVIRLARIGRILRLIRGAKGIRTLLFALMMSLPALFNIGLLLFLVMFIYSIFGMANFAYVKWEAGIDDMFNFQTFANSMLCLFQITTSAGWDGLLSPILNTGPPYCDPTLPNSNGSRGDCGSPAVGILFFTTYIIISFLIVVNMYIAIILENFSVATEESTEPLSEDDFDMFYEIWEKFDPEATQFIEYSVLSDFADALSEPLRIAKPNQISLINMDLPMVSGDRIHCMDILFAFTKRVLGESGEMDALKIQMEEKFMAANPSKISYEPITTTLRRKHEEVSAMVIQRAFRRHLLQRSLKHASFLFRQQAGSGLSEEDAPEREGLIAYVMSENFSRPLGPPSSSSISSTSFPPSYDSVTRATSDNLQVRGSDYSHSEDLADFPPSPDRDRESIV

Row | SMILES | IC50 (hNav1.7) [µM] | IC50 (hNav1.5) [µM]
1 | C#CC[C@H](NC(C)=O)C(=O)NCCCC[C@@H]1NC(=O)[C@H](CC(=O)O)NC(=O)[C@@H]2CCCN2C(=O)[C@H]([C@@H](C)CC)NC(=O)[C@@H]2CSSC[C@@H]3NC(=O)[C@H](C(C)C)NC(=O)[C@H](CC(C)C)NC(=O)[C@H](CC(N)=O)NC(=O)[C@@H]4CCCN4C(=O)[C@H](CCCNC(=N)N)NC(=O)[C@H](CSSC[C@H](NC(=O)[C@@H](N)CC(=O)O)C(=O)N[C@@H](CC(C)C)C(=O)NCC(=O)N[C@@H](C)C(=O)N[C@@H](Cc4ccccc4)C(=O)N[C@@H](CCCNC(=N)N)C(=O)N[C@@H](CCCCN)C(=O)N2)NC(=O)[C@H](CSSC[C@@H](C(=O)N[C@@H](CCCCN)C(=O)N[C@@H](Cc2ccc(O)cc2)C(=O)N[C@H](C(=O)N[C@@H](Cc2ccccc2)C(N)=O)C(C)C)NC(=O)[C@H](Cc2c[nH]c4ccccc24)NC(=O)[C@H](CCCCN)NC(=O)[C@H](Cc2c[nH]cn2)NC(=O)[C@H]([C@@H](C)O)NC(=O)[C@H](CCCNC(=N)N)NC(=O)[C@H](CO)NC3=O)NC(=O)[C@H](CCCCN)NC(=O)[C@H](CC(=O)O)NC1=O [[Ala5;Phe6;K(Ac-Pra)13]GpTx-1(1-34)] (H-DCLGAFRKCIPDK([Pra-Ac])DKCCRPNLVCSRTHKWCKYVF-NH2; disulfide 2-17, 9-23, 16-30) | 0.011 | > 10
2 | CC[C@H](C)[C@@H]1NC(=O)[C@@H]2CSSC[C@@H]3NC(=O)[C@H](C(C)C)NC(=O)[C@H](CC(C)C)NC(=O)[C@H](CC(N)=O)NC(=O)[C@@H]4CCCN4C(=O)[C@H](CCCNC(=N)N)NC(=O)[C@H](CSSC[C@H](NC(=O)[C@@H](N)CC(=O)O)C(=O)N[C@@H](CC(C)C)C(=O)NCC(=O)N[C@@H](C)C(=O)N[C@@H](CCSC)C(=O)N[C@@H](CCCNC(=N)N)C(=O)N[C@@H](CCCCN)C(=O)N2)NC(=O)[C@H](CSSC[C@@H](C(=O)N[C@@H](CCCCN)C(=O)N[C@@H](Cc2ccc(O)cc2)C(=O)N[C@H](C(=O)N[C@@H](Cc2ccccc2)C(N)=O)C(C)C)NC(=O)[C@H](Cc2c[nH]c4ccccc24)NC(=O)[C@H](CCCNC(=N)NC)NC(=O)[C@H](Cc2c[nH]cn2)NC(=O)[C@H]([C@@H](C)O)NC(=O)[C@H](CCCNC(=N)N)NC(=O)[C@H](CO)NC3=O)NC(=O)[C@H](CCCCN)NC(=O)[C@H](CC(=O)O)NC(=O)[C@H](CC(N)=O)NC(=O)[C@H](CC(=O)O)NC(=O)[C@@H]2CCCN2C1=O [[Ala5;R(Me)28]GpTx-1(1-34)] (H-DCLGAMRKCIPDNDKCCRPNLVCSRTH[Arg(Me)]WCKYVF-NH2; disulfide 2-17, 9-23, 16-30) | 0.051 | > 10
3 | CC[C@H](C)[C@@H]1NC(=O)[C@@H]2CSSC[C@@H]3NC(=O)[C@H](C(C)C)NC(=O)[C@H](CC(C)C)NC(=O)[C@H](CC(N)=O)NC(=O)[C@@H]4CCCN4C(=O)[C@H](CCCNC(=N)N)NC(=O)[C@H](CSSC[C@H](NC(=O)[C@@H](N)CC(=O)O)C(=O)N[C@@H](CC(C)C)C(=O)NCC(=O)N[C@@H](C)C(=O)N[C@@H](CCSC)C(=O)N[C@@H](CCCNC(=N)N)C(=O)N[C@@H](CCCCN)C(=O)N2)NC(=O)[C@H](CSSC[C@@H](C(=O)N[C@@H](CCCCN)C(=O)N[C@@H](Cc2ccc(O)cc2)C(=O)N[C@H](C(=O)N[C@@H](Cc2ccccc2)C(N)=O)C(C)C)NC(=O)[C@H](Cc2c[nH]c4ccccc24)NC(=O)[C@H](CCCNC(=NC)NC)NC(=O)[C@H](Cc2c[nH]cn2)NC(=O)[C@H]([C@@H](C)O)NC(=O)[C@H](CCCNC(=N)N)NC(=O)[C@H](CO)NC3=O)NC(=O)[C@H](CCCCN)NC(=O)[C@H](CC(=O)O)NC(=O)[C@H](CC(N)=O)NC(=O)[C@H](CC(=O)O)NC(=O)[C@@H]2CCCN2C1=O [[Ala5;SDMA28]GpTx-1(1-34)] (H-DCLGAMRKCIPDNDKCCRPNLVCSRTH[Arg(Me2s)]WCKYVF-NH2; disulfide 2-17, 9-23, 16-30) | 0.041 | > 10
4 | CC[C@H](C)[C@@H]1NC(=O)[C@@H]2CSSC[C@@H]3NC(=O)[C@H](C(C)C)NC(=O)[C@H](CC(C)C)NC(=O)[C@H](CC(N)=O)NC(=O)[C@@H]4CCCN4C(=O)[C@H](CCCNC(=N)N)NC(=O)[C@H](CSSC[C@H](NC(=O)[C@@H](N)CC(=O)O)C(=O)N[C@@H](CC(C)C)C(=O)NCC(=O)N[C@@H](C)C(=O)N[C@@H](CCSC)C(=O)N[C@@H](CCCNC(=N)N)C(=O)N[C@@H](CCCCN)C(=O)N2)NC(=O)[C@H](CSSC[C@@H](C(=O)N[C@@H](CCCCN)C(=O)N[C@@H](Cc2ccc(O)cc2)C(=O)N[C@H](C(=O)N[C@@H](Cc2ccccc2)C(N)=O)C(C)C)NC(=O)[C@H](Cc2c[nH]c4ccccc24)NC(=O)[C@H](CO)NC(=O)[C@H](Cc2c[nH]cn2)NC(=O)[C@H]([C@@H](C)O)NC(=O)[C@H](CCCNC(=N)N)NC(=O)[C@H](CO)NC3=O)NC(=O)[C@H](CCCCN)NC(=O)[C@H](CC(=O)O)NC(=O)[C@H](CC(N)=O)NC(=O)[C@H](CC(=O)O)NC(=O)[C@@H]2CCCN2C1=O [[Ala5;Ser28]GpTx-1(1-34)] (H-DCLGAMRKCIPDNDKCCRPNLVCSRTHSWCKYVF-NH2; disulfide 2-17, 9-23, 16-30) | 0.045 | > 10
5 | CC[C@H](C)[C@@H]1NC(=O)[C@@H]2CSSC[C@@H]3NC(=O)[C@H](C(C)C)NC(=O)[C@H](CC(C)C)NC(=O)[C@H](CC(N)=O)NC(=O)[C@@H]4CCCN4C(=O)[C@H](CCCNC(=N)N)NC(=O)[C@H](CSSC[C@H](NC(=O)[C@@H](N)CC(=O)O)C(=O)N[C@@H](CC(C)C)C(=O)NCC(=O)N[C@@H](C)C(=O)N[C@@H](CCSC)C(=O)N[C@@H](CCCNC(=N)N)C(=O)N[C@@H](CCCCN)C(=O)N2)NC(=O)[C@H](CSSC[C@@H](C(=O)N[C@@H](CCCCN)C(=O)N[C@@H](Cc2ccc(O)cc2)C(=O)N[C@H](C(=O)N[C@@H](Cc2ccccc2)C(N)=O)C(C)C)NC(=O)[C@H](Cc2c[nH]c4ccccc24)NC(=O)[C@H](CCCCNC(=N)N)NC(=O)[C@H](Cc2c[nH]cn2)NC(=O)[C@H]([C@@H](C)O)NC(=O)[C@H](CCCNC(=N)N)NC(=O)[C@H](CO)NC3=O)NC(=O)[C@H](CCCCN)NC(=O)[C@H](CC(=O)O)NC(=O)[C@H](CC(N)=O)NC(=O)[C@H](CC(=O)O)NC(=O)[C@@H]2CCCN2C1=O [[Ala5;hArg28]GpTx-1(1-34)] (H-DCLGAMRKCIPDNDKCCRPNLVCSRTH[hArg]WCKYVF-NH2; disulfide 2-17, 9-23, 16-30) | 0.014 | > 10
6 | CC[C@H](C)[C@@H]1NC(=O)[C@@H]2CSSC[C@@H]3NC(=O)[C@H](C)NC(=O)[C@H](CC(C)C)NC(=O)[C@H](CC(N)=O)NC(=O)[C@@H]4CCCN4C(=O)[C@H](CCCNC(=N)N)NC(=O)[C@H](CSSC[C@H](NC(=O)[C@@H](N)CC(=O)O)C(=O)N[C@@H](CC(C)C)C(=O)NCC(=O)N[C@@H](Cc4ccccc4)C(=O)N[C@@H](CCSC)C(=O)N[C@@H](CCCNC(=N)N)C(=O)N[C@@H](CCCCN)C(=O)N2)NC(=O)[C@H](CSSC[C@@H](C(=O)N[C@@H](CCCCN)C(=O)N[C@@H](Cc2ccc(O)cc2)C(=O)N[C@H](C(=O)N[C@@H](Cc2ccccc2)C(N)=O)C(C)C)NC(=O)[C@H](Cc2c[nH]c4ccccc24)NC(=O)[C@H](CCCCN)NC(=O)[C@H](Cc2cnc[nH]2)NC(=O)[C@H]([C@@H](C)O)NC(=O)[C@H](CCCNC(=N)N)NC(=O)[C@H](CO)NC3=O)NC(=O)[C@H](CCCCN)NC(=O)[C@H](CC(=O)O)NC(=O)[C@H](CC(N)=O)NC(=O)[C@H](CC(=O)O)NC(=O)[C@@H]2CCCN2C1=O [[Ala22]GpTx-1(1-34)] (H-DCLGFMRKCIPDNDKCCRPNLACSRTHKWCKYVF-NH2; disulfide 2-17, 9-23, 16-30) | 0.006 | 6.2
